Columns and labels:
[1] = system: Leishmania major; test: Antimicrobial activity against Leishmania major MHOM/IL/81/BNI promastigotes after 96 hrs by resazurin-based assay; type: functional, organism-based
[2] = system: Leishmania mexicana; test: Antimicrobial activity against Leishmania mexicana MHOM/MX/95/NAN1 promastigotes after 96 hrs by resazurin-based assay; type: functional, organism-based; details: MHOM/MX/95/NAN1, 96 h
[3] = system: Leishmania donovani; test: Antimicrobial activity against Leishmania donovani MHOM/IN/00/DEVI promastigotes after 72 hrs by MTT assay; type: functional, organism-based
[4] = Cytotoxicity against mouse J774A1 cells after 72 hrs by MTT assay; type: cell-based, J774.A1
[5] = Cytotoxicity against human HepG2 cells after 72 hrs by MTT assay; type: cell-based
[6] = Selectivity index, ratio of CC50 for human HepG2 cells to IC50 for Leishmania major MHOM/IL/81/BNI promastigotes; type: functional
[7] = Selectivity index, ratio of CC50 for human HepG2 cells to IC50 for Leishmania mexicana MHOM/MX/95/NAN1 promastigotes; type: functional
[8] = Selectivity index, ratio of CC50 for human HepG2 cells to IC50 for Leishmania donovani MHOM/IN/00/DEVI promastigotes; type: functional
[9] = Selectivity index, ratio of CC50 for mouse J774A1 cells to IC50 for Leishmania major MHOM/IL/81/BNI promastigotes; type: functional, J774.A1
[10] = Selectivity index, ratio of CC50 for mouse J774A1 cells to IC50 for Leishmania mexicana MHOM/MX/95/NAN1 promastigotes; type: functional, J774.A1
[11] = Selectivity index, ratio of CC50 for mouse J774A1 cells to IC50 for Leishmania donovani MHOM/IN/00/DEVI promastigotes; type: functional, J774.A1
[12] = system: Trypanosoma brucei brucei; test: Antimicrobial activity against Trypanosoma brucei brucei Antat 1.1 after 24 hrs by haemocytometric analysis; type: functional, organism-based; details: Antat 1.1, 24 h
[13] = Selectivity index, ratio of CC50 for human HepG2 cells to IC50 for Trypanosoma brucei brucei Antat 1.1; type: functional
[14] = system: Plasmodium falciparum; test: Antimicrobial activity against chloroquine-resistant and mefloquine-sensitive Plasmodium falciparum W2 infected in human erythrocytes after 48 hrs by SYBR Green I assay; type: functional, organism-based; details: W2, 48 h
[15] = system: Plasmodium falciparum; test: Antimicrobial activity against chloroquine and mefloquine-sensitive Plasmodium falciparum 3D7 infected in human erythrocytes after 48 hrs by SYBR Green I assay; type: functional, organism-based; details: 3D7, 48 h
[16] = Selectivity index, ratio of CC50 for human HepG2 cells to IC50 for chloroquine-resistant and mefloquine-sensitive Plasmodium falciparum W2; type: functional
[17] = Selectivity index, ratio of CC50 for human HepG2 cells to IC50 for chloroquine and mefloquine-sensitive Plasmodium falciparum 3D7; type: functional
[18] = system: Leishmania major; test: Ratio of pentamidine IC50 to compound IC50 for Leishmania major MHOM/IL/81/BNI promastigotes; type: functional

SMILES | IC50 [1] [µM] | IC50 [2] [µM] | IC50 [3] [µM] | CC50 at 72 h [4] [µM] | CC50 at 72 h [5] [µM] | Ratio CC50/IC50 [6] | Ratio CC50/IC50 [7] | Ratio CC50/IC50 [8] | Ratio CC50/IC50 [9] | Ratio CC50/IC50 [10] | Ratio CC50/IC50 [11] | IC50 [12] [µM] | Ratio CC50/IC50 [13] | IC50 [14] [µM] | IC50 [15] [µM] | Ratio CC50/IC50 [16] | Ratio CC50/IC50 [17] | Ratio IC50 [18]
C/C=C/C=C/c1nc2ccccc2n2cccc12 | 4.7 | 7.6 | 9.8 | 4.3 | 10.3 | 2.2 | 1.4 | 1.1 | 0.9 | 0.6 | 0.4 | 2.4 | 4.3 | 2.5 | 2.4 | 4.1 | 4.3 | 
C/C=C/C=C/c1nc2cc(OC)ccc2n2cccc12 | 3 | 3.3 | 5.3 | 2.5 | 5.8 | 1.9 | 1.8 | 1.1 | 0.8 | 0.8 | 0.5 | 2.1 | 2.8 | 3.4 | 3.3 | 1.7 | 1.8 | 
C/C=C/C=C/c1nc2ccc(OC)cc2n2cccc12 | 2.7 | 3.7 | 5.4 | 5.3 | 8.7 | 3.2 | 2.4 | 1.6 | 2 | 1.4 | 1 | 1.8 | 4.8 | 2.4 | 1.5 | 3.6 | 5.8 | 
C/C=C/C=C/c1nc2cccc(OC)c2n2cccc12 | 3.3 | 8 | 7.2 | 2.7 | 6.5 | 2 | 0.8 | 0.9 | 0.8 | 0.3 | 0.4 | 2.2 | 2.9 | 2.6 | 3.2 | 2.5 | 2 | 
CCC/C=C/C=C/c1nc2ccccc2n2cccc12 | 3.9 | 12.1 | 7.6 | 4.7 | 9.3 | 2.4 | 0.8 | 1.2 | 1.2 | 0.4 | 0.6 |  |  | 1.1 | 2.5 | 8.5 | 3.7 | 
CCC/C=C/C=C/c1nc2cc(OC)ccc2n2cccc12 | 2.8 | 3.2 | 8.6 | 6.5 | 8.8 | 3.1 | 2.8 | 1 | 2.3 | 2 | 0.8 | 1.9 | 4.6 | 0.8 | 2.3 | 11 | 3.8 | 
CCC/C=C/C=C/c1nc2ccc(OC)cc2n2cccc12 | 7.4 | 5.1 | 7.6 | 7.8 | 20.1 | 2.7 | 4 | 2.6 | 1.1 | 1.5 | 1 |  |  | 11 | 3.3 | 1.8 | 6.1 | 
CCC/C=C/C=C/c1nc2cccc(OC)c2n2cccc12 | 3.9 | 10.3 | 9.9 | 7.1 | 17.4 | 4.5 | 1.7 | 1.8 | 1.8 | 0.7 | 0.7 |  |  | 1.3 | 1.6 | 13.4 | 10.9 | 
CCCC/C=C/C=C/c1nc2ccccc2n2cccc12 | 3.7 | 6.1 | 13.7 | 8.8 | 8.2 | 2.2 | 1.3 | 0.6 | 2.4 | 1.4 | 0.6 |  |  | 6.7 | 6.3 | 1.2 | 1.3 | 
CCCC/C=C/C=C/c1nc2cc(OC)ccc2n2cccc12 | 2.5 | 6.6 | 12.1 | 8 | 18.3 | 7.3 | 2.8 | 1.5 | 3.2 | 1.2 | 0.7 | 1.1 | 16.6 | 13.8 | 8.9 | 1.3 | 2.1 | 
CCCC/C=C/C=C/c1nc2ccc(OC)cc2n2cccc12 | 4.4 | 3.8 | 14.7 | 10 | 22.9 | 5.2 | 6 | 1.6 | 2.3 | 2.6 | 0.7 | 1.3 | 17.6 | 13.3 | 10.4 | 1.7 | 2.2 | 
CCCC/C=C/C=C/c1nc2cccc(OC)c2n2cccc12 | 5.8 | 4.5 | 11.6 | 6.4 | 15.8 | 2.7 | 3.5 | 1.4 | 1.1 | 1.4 | 0.6 |  |  | 19.8 | 9.8 | 0.8 | 1.6 | 
C/C=C/C=C/C=C/c1nc2ccccc2n2cccc12 | 1.2 | 4.4 | 10.5 | 4.9 | 10.6 | 8.8 | 2.4 | 1 | 4.1 | 1.1 | 0.5 | 2.2 | 4.8 | 8.8 | 10.1 | 1.2 | 1 | 3.6
C/C=C/C=C/c1nc2ccccc2n2ccc(OCC)c12 | 1.5 | 9.6 | 4 | 3.5 | 4.5 | 3 | 0.5 | 1.1 | 2.3 | 0.4 | 0.9 |  |  | 9.6 | 7.7 | 0.5 | 0.6 | 
O[C@@H](c1cc(C(F)(F)F)nc2c(C(F)(F)F)cccc12)[C@H]1CCCCN1 [(S,R)-MEFLOQUINE] |  |  |  |  |  |  |  |  |  |  |  |  |  | 0.015 |  |  |  | 
N=C(N)c1ccc(OCCCCCOc2ccc(C(=N)N)cc2)cc1 [PENTAMIDINE] | 4.3 | 2.4 | 5.5 | 0.56 |  | 0.5 | 1 | 0.4 | 0.1 | 0.2 | 0.1 | 0.05 | 46 |  |  |  |  | 

— ChEMBL document CHEMBL3259800, “Design, synthesis and biological evaluation of novel 4-alkapolyenylpyrrolo[1,2-a]quinoxalines as antileishmanial agents--part III” (Eur J Med Chem, 2014)
